From patent publication US10456439B2, “NK3 agonist for use in the treatment of a patient suffering from atrial arrhythmia or fibrillation” (priority 2014, dated 2019)
Entries after “also recorded” stand apart in the source; their conditions may differ. Where a SMILES comes first, the peptide text is derived from it.

Tests used:
NK-1 receptor = NK-1 receptor (Homo sapiens, UniProt P25103); details: cited from earlier work
NK-3 receptor [1] = molecular target: T1, NK-3 receptor (Homo sapiens, UniProt P29371); details: cited from earlier work
T1 sequence (P29371 1-465): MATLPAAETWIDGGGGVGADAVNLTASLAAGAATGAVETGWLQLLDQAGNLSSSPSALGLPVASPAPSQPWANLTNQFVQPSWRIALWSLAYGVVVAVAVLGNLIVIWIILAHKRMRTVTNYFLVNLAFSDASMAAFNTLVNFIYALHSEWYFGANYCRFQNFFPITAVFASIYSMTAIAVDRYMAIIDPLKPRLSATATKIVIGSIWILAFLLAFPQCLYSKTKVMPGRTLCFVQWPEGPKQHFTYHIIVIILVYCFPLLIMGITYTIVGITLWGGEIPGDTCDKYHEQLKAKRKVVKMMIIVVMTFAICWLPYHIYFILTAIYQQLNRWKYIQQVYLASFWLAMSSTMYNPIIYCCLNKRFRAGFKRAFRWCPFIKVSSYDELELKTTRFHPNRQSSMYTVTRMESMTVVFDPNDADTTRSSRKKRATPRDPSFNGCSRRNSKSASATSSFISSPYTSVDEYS

[2] = system: left atrium of anesthetized rabbit; assay: In vivo left atrial effective refractory period in the anesthetised rabbit; details: single bolus 11 nmol/kg, basic cycle length 220 ms, control 110 ms
Protocol: Male New Zealand White rabbits were anesthetized with ketamine 50 mg/kg and xylazine 8 mg/kg (and additionally 0.09 mg/kg Temgesic for pain relief) subcutaneously, intubated, and artificially ventilated. Anesthesia was maintained by isoflurane (0.8-1.2%). Catheters for drug infusions and blood pressure recording were inserted into marginal ear veins/arteries. Following thoracotomy, the pericardium was opened to expose the heart. A stimulation- and recording-electrode were placed on the left atrium for epicardial electrophysiological study. The left atrium was stimulated at a basic cycle length of 220 ms, and twice the diastolic stimulus current threshold. […] The effective refractory period was defined as the longest S1-S2 interval failing to produce atrial activation. Approximately 30 minutes after the completion of the preparation when the rabbit was hemodynamically and electrophysiologically stable, control measurements were undertaken.

[3] = system: rabbit ventricular myocytes; assay: Action potential recording (perforated patch clamp) in rabbit ventricular myocytes; details: 2 Hz, 1-10 μM substance P or 100 nM Senktide
Protocol: (§2) Male New Zealand White specified pathogen free rabbits (2.5-3.5 kg) were anaesthetized with a combination of 20 mg xylazine and 100 mg ketamine (intramuscularly) and heparinized with a bolus of 1000 IU heparin (intravenously). Subsequently, the animals were killed by 200 mg pentobarbital intravenously, after which the heart was quickly excised and mounted on a langendorff perfusion apparatus. […] Single atrial cells were isolated from the left atrium using the same protocol with a modification consisting of complementing the enzymatic solution with 6.6 pg/mL protease.
(§3) Small aliquots of single cell suspension were introduced into a recording chamber on the stage of an inverted microscope. Cells were allowed to adhere for 5 minutes after which superfusion was started. Single quiescent rod-shaped myocytes with clear cross-striations and smooth surfaces were selected for measurements.
(§4) Voltage control, data acquisition, and analysis were performed using custom-made software.
(§5) Potentials were corrected for liquid junction potential [3]. Signals were low-pass filtered (cut-off frequency: 5 kHz) and digitized at 40 kHz. Cell membrane capacitance (Cm) was estimated by dividing the decay time constant of the capacitive transient in response to 5 mV hyperpolarizing voltage clamp steps from a holding potential of −40 mV, by the series resistance.
(§6) APs were measured with the amphotericin-B-perforated patch clamp technique using normal Tyrode's solution containing (in mM): NaCl 140, KCl 5.4, CaCl2 1.8, MgCl2 1.0, glucose 5.5, HEPES 5.0, pH 7.4 (NaOH). The patch-pipettes (borosilicate glass; 1-3 MΩ) were filled with a ‘standard’ solution containing (in mM): K-gluconate 110, KCl 30, NaCl 5, MgCl2 1, amphotericin-B 0.22, HEPES 10, pH 7.3 (KOH).
(§7) APs were elicited at 2 Hz by 2-ms (1.5×diastolic stimulation threshold) current pulses applied through the patch pipette. […] Values obtained from 10 consecutive APs were averaged.
(§8) The NK-agonists were applied in a cumulative sequence with 5 minutes intervals between increments in concentration. Effects were assessed after equilibration, but not earlier than 3 minutes after application.

rabbit atrial myocytes = assay: Action potential recording (perforated patch clamp) in rabbit atrial myocytes; details: increasing concentrations, result in words
Protocol: as §2, §3, §4, §5, §6, §7, §8

[4] = system: ventricle of Langendorff-perfused rabbit heart; assay: Ventricular effective refractory period in Langendorff-perfused rabbit hearts; details: 20-50 nM Senktide
Protocol: (§1) After the heart was excised, it was cannulated, quickly mounted on a Langendorff perfusion set-up, and perfused at 37° C. with a solution containing (in mmol/L) 128 NaCl, 4.7 KCl, 1.45 CaCl2), 0.6 MgCl2, 27 NaHCO3, 0.4 NaH2PO4, and 11 glucose (pH maintained at 7.4 by equilibration with a mixture of 95% 02 and 5% CO2). The left atrium (ventricle) was stimulated at a basic cycle length of 200 ms, and twice the diastolic stimulus current threshold. […] The effective refractory period was defined as the longest S1-S2 interval failing to produce atrial (ventricular) activation.

Murine NK3 receptor [5] = molecular target: T2, Murine NK3 receptor (Mus musculus, UniProt P47937); details: read-out: Binding (Inhibition of [125I]-[MePhe7]neurokinin B) Murine NK3 receptor, Ki; HEK 293-murine NK3 receptor cells; mean ± SEM; cited from earlier work
T2 construct: expressed in transfected cells; host or cells: HEK 293
T2 sequence (P47937 1-452): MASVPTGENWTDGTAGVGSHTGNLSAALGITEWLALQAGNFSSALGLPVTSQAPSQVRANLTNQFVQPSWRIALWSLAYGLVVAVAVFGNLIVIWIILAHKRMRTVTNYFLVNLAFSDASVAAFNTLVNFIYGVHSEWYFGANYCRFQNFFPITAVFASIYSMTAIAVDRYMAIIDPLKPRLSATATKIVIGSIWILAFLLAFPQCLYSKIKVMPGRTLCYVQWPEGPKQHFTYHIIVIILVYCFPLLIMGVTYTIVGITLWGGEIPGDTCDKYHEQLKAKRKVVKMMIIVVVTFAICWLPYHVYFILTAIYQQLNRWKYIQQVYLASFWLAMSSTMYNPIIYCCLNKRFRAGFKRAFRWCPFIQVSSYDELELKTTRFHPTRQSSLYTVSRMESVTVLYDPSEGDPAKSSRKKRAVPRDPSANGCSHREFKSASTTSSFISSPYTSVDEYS

[6] = system: left atrium of Langendorff-perfused rabbit heart; assay: Left atrial effective refractory period in Langendorff-perfused rabbit hearts; details: for Longest S1-S2 interval that fails to produce atrial activation (A-ERP): basic cycle length 200 ms; for Effect on atrial effective refractory period, in words / Prolongation of the S1-S2 interval measured in the left atrium: Langendorff-perfused rabbit heart; for Prolongation of the S1-S2 interval measured in the left atrium: difference to control
Protocol: as §1

Murine NK3 receptor [7] = molecular target: T2, Murine NK3 receptor; details: HEK 293-murine NK3 receptor cells; mean ± SEM; read-out: Ca2+ Mobilization Murine NK3 receptor, EC50; cited from earlier work
[8] = system: human left atrial appendage (LAA); assay: Effective refractory period in human left atrial appendages; details: basic cycle length 600 ms
Text: Left atrial appendages (LAA) were routinely removed from patients with atrial fibrillation receiving PVI (pulmonary vein isolation) ablation. The LAAs were removed using an endoscopic stapling device (Endo Gia stapler, Tyco Healthcare Group). The tissue samples were transported in 100-mL cooled superfusion fluid (Na^+, 155.5 mmol/L; K^+, 4.7 mmol/L; Ca^2+, 1.45 mmol/L; Mg^2+, 0.6 mmol/L; Cl^−, 136.6 mmol/L; HCO3^−, 27 mmol/L; PO4^3−, 0.4 mmol/L; glucose, 11.1 mmol/L; and heparin, 1000 IE) and submerged in a tissue bath. The superfusion fluid was kept at a stable temperature of 36.5° C. to 37.5° C. and oxygenized with a mixture of 95% O2 and 5% CO2 to maintain a pH of 7.4. LAAs were stimulated at 100 beats per minute at 2-3 times diastolic threshold with a pulse width of 2 ms using an epicardial electrode.
The effective refractory period was defined as the longest S1-S2 interval failing to produce atrial (ventricular) activation.

NK-3 receptor [9] = molecular target: T1, NK-3 receptor; details: cited from earlier work; remark: listed apart in the source
NK-3 receptor [10] = molecular target: T1, NK-3 receptor; set-up: expressed in transfected cells; host or cells: HEK 293; details: HEK 293-human NK3 receptor cells, mean ± SEM, read-out: Ca2+ Mobilization Human NK3 receptor; cited from earlier work
NK-3 receptor [11] = molecular target: T1, NK-3 receptor; set-up: expressed in transfected cells; host or cells: HEK 293; details: read-out: Binding (Inhibition of [125I]-[MePhe7]neurokinin B) Human NK3 receptor, HEK 293-human NK3 receptor cells, mean ± SEM; cited from earlier work
NK2-receptor = molecular target: T3, NK2-receptor (Homo sapiens, UniProt P21452); details: cited from earlier work
T3 sequence (P21452 1-398): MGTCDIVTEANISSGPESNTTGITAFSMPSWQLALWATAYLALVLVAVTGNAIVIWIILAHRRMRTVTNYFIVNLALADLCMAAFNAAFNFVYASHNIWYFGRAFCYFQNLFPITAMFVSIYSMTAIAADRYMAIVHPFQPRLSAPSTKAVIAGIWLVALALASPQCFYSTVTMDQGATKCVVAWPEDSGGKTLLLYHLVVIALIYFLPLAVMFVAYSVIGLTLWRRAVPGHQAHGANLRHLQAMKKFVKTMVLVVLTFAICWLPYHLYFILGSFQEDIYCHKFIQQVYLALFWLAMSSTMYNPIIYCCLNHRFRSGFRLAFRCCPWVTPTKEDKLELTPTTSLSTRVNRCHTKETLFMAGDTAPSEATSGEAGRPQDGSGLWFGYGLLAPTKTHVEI

NK-1 receptor, sequence (P25103 whole entry, species assumed): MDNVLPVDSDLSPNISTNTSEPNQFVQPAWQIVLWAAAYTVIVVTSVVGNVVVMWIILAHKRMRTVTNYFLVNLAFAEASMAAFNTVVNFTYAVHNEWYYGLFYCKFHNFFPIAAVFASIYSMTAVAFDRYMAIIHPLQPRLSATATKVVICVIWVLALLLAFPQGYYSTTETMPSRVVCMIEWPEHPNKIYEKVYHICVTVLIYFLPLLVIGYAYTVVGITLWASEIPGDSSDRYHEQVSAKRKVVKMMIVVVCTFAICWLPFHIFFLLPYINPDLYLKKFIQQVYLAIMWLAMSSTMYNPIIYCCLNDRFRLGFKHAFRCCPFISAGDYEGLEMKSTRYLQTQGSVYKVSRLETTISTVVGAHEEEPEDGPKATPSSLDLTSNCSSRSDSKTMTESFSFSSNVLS

CC[C@H](C)[C@H](NC(=O)[C@H](Cc1ccccc1)NC(=O)[C@H](C)NC(=O)[C@H](CC(=O)O)NC(=O)[C@H](CCCCN)NC(=O)[C@H](CO)NC(=O)[C@@H]1CCCN1C(=O)[C@@H]1CCC(=O)N1)C(=O)NCC(=O)N[C@@H](CC(C)C)C(=O)N[C@@H](CCSC)C(N)=O [Eledoisin] (HELM PEPTIDE1{[Glp].P.S.K.D.A.F.I.G.L.M.[am]}$$$$V2.0)
NK-1 receptor Affinity (pIC50) (NK-1 receptor): 8.6 pIC50 | NK-3 receptor Affinity (pIC50) (NK-3 receptor [1]): 6.2-6.6 pIC50

CSCC[C@H](NC(=O)[C@H](CC(C)C)NC(=O)CNC(=O)[C@@H](NC(=O)[C@H](Cc1ccccc1)NC(=O)[C@H](CCC(N)=O)NC(=O)[C@H](CC(=O)O)NC(=O)[C@H](CO)NC(=O)[C@H](CCCCN)NC(=O)[C@@H]1CCCN1C(=O)[C@@H](NC(=O)[C@@H](N)CC(=O)O)C(C)C)C(C)C)C(N)=O [Kassinin] (H-DVPKSDQFVGLM-NH2)
NK-1 receptor Affinity (pIC50) (NK-1 receptor): 6.6-7.1 pIC50 | NK-3 receptor Affinity (pIC50) (NK-3 receptor [1]): 6.7-7.0 pIC50

CSCC[C@H](NC(=O)[C@H](CC(C)C)NC(=O)CNC(=O)[C@H](Cc1ccccc1)N(C)C(=O)[C@H](Cc1ccccc1)NC(=O)[C@H](CC(=O)O)NC(=O)CCC(=O)O)C(N)=O [Senktide, N-(3-carboxy-1-oxopropyl)-L-α-aspartyl-L-phenylalanyl-N-methyl-L-phenylalanylglycyl-L-leucyl-L-methioninamide] (HELM PEPTIDE1{[O=C(O)CCC(=O)[*:2]].D.F.[meF].G.L.M.[am]}$$$$V2.0)
Longest S1-S2 interval that fails to produce atrial activation (A-ERP) in vivo [2]: 160 ms | Effect on ventricular action potential (AP) duration [3]: absence of effect; also recorded: does not prolong the AP | Effect on atrial action potential (AP) duration (rabbit atrial myocytes): significantly prolongs the AP duration | Effect on ventricular effective refractory period (V-ERP) [4]: not affected | Ki (Murine NK3 receptor [5]): 11.9 ± 2.1 nM | Longest S1-S2 interval that fails to produce atrial activation (A-ERP) ([6]; 750 nM Senktide, control 80 ms): 100 ms | Effect on atrial effective refractory period, in words [6]: prolongs the atrial refractory period | Prolongation of the S1-S2 interval measured in the left atrium [6]: 20 ms | EC50 (Murine NK3 receptor [7]): 0.15 ± 0.09 nM | Longest S1-S2 interval that fails to produce atrial activation (ERP) in human LAA ([8]; 50 nM Senktide, control 290 ms): 440 ms | Effective refractory period in human LAA after wash out ([8]; wash out after 50 nM Senktide): 320 ms

Asp-Met-His-Asp-Phe-Phe-(Me)Phe-Gly-Leu-Met-NH2 (DMHDFFFGLM; HELM PEPTIDE1{D.M.H.D.F.F.[meF].G.L.M.[am]}$$$$V2.0; N-terminus assumed; SMILES CSCC[C@H](NC(=O)[C@H](CC(C)C)NC(=O)CNC(=O)[C@H](Cc1ccccc1)N(C)C(=O)[C@H](Cc1ccccc1)NC(=O)[C@H](Cc1ccccc1)NC(=O)[C@H](CC(=O)O)NC(=O)[C@H](Cc1c[nH]cn1)NC(=O)[C@H](CCSC)NC(=O)[C@@H](N)CC(=O)O)C(N)=O; listed as Homo sapiens) [[MePhe^7]neurokinin B]
NK-3 receptor Affinity (pEC50) (NK-3 receptor [9]): 8.9 pEC50 | NK-3 receptor Affinity (pK1) (NK-3 receptor [1]): 8.7-9.6 pK1 | EC50 (NK-3 receptor [10]): 0.3 ± 0.1 nM | Ki (Murine NK3 receptor [5]): 0.6 ± 0.1 nM | Longest S1-S2 interval that fails to produce atrial activation (A-ERP) ([6]; 20 nM (N-Me-Phe7)-NKB, control 75 ms): 105 ms | Effect on atrial effective refractory period, in words [6]: prolongs the atrial effective refractory period | Prolongation of the S1-S2 interval measured in the left atrium [6]: 30 ms | Ki (NK-3 receptor [11]): 1.8 ± 1 nM | EC50 (Murine NK3 receptor [7]): 0.26 ± 0.13 nM

Neurokinin A: compound having CAS registry No. 86933-74-6
NK-3 receptor Affinity (pEC50) (NK-3 receptor [9]): 7.4 pEC50 | NK-3 receptor Affinity (pK1) (NK-3 receptor [1]): 5.5-6.3 pK1 | EC50 (NK-3 receptor [10]): 22 ± 4 nM | Ki (Murine NK3 receptor [5]): 785 ± 195 nM | Ki (NK-3 receptor [11]): 3300 ± 240 nM | EC50 (Murine NK3 receptor [7]): 0.82 ± 0.24 nM

Neurokinin B: natural NK3-receptor agonist, CAS registry No. 86933-75-7
NK2-receptor Affinity (pK1) (NK2-receptor): 5.0-7.7 pK1 | Ki (Murine NK3 receptor [5]): 2.3 ± 0.3 nM | EC50 (Murine NK3 receptor [7]): 0.09 ± 0.02 nM

RSRTRQFYGLM [Hemokinin-1]
NK-1 receptor Affinity (pK1) (NK-1 receptor): 9.8-11.7 pK1 | NK-3 receptor Affinity (pK1) (NK-3 receptor [1]): 8.6-9.3 pK1 | NK2-receptor Affinity (pK1) (NK2-receptor): 6.3 pK1

Substance P: agonist of multiple neurokinin receptors, CAS registry No. 33507-63-0
Effect on ventricular action potential (AP) duration [3]: does not prolong the AP | Effect on ventricular action potential (AP) duration ([3]; listed as substance P): absence of effect | Effect on atrial action potential (AP) duration (rabbit atrial myocytes): significantly prolongs the AP duration | Ki (Murine NK3 receptor [5]): 4920 ± 2250 nM | EC50 (Murine NK3 receptor [7]): 5.4 ± 2.4 nM

[Sar9, Met (O2)11]-Substance P
Effect on atrial action potential (AP) duration (rabbit atrial myocytes): absence of effect; also recorded: does not affect AP duration
